According to patent publication US12377110B2, “Fospropofol methods and compositions” (Epalex Corporation, priority 2019, dated 2025):

Tested on: moderate to severe migraine headache
Assay: Study A17: clinical course (headache pain, most bothersome symptom, associated migraine symptoms)
Format: in vivo, human
Conditions: 800 mg oral
Protocol: The study is planned to complete approximately 85 subjects. • Enrolled subjects will be asked to come to the study site for treatment when they experience a qualifying migraine headache. Dosing must occur within 4 hours after onset of the migraine symptoms. If treatment at the study site is not feasible or practicable within 4 hours after onset of migraine symptoms, subjects should use their usual medication for that headache and attempt to visit the clinic for treatment as soon as possible (within 4 hours) after onset of their next migraine headache. Dosing must occur within 60 days after enrollment (see Post-enrollment Period below). • At clinic check-in for treatment, study personnel will verify eligibility for closing regarding the criteria for a qualifying headache and adherence to post-enrollment study restrictions (see Eligibility for Dosing below). • Treatment will consist of a single oral dose of fospropofol disodium. […] Because the prevalence of migraine headaches is higher in women than in men, efforts will be made to enroll at least 50% women. • Subjects must meet the general inclusion and exclusion criteria listed below (Inclusion Criteria and Exclusion Criteria) at screening to be enrolled in the study. To be eligible for fospropofol disodium treatment after onset of a migraine headache, enrolled subjects must meet criteria specific to the presenting headache at clinic check-in (see Qualifying Headache below) and adhere to study restrictions specific to the period between enrollment and clinic check-in (see Post-enrollment Restrictions below). • Inclusion Criteria Subjects must meet all of the following criteria at screening to be enrolled in the study: • 1. Written informed consent approved by the Institutional Review Board (IRB) given before any study-related procedures are performed • 2. […] Complete abstinence alone can be used as a method of contraception. • 6. […] Able to comprehend the nature of the study, capable of giving written informed consent, and able to communicate effectively with clinic staff (as assessed by the investigator) • 8. Available to volunteer for the entire study duration and willing to adhere to all protocol requirements, including the post-enrollment restrictions (see Post-enrollment Restrictions below) • 9. Agrees not to post any information related to the study on any website or social media site (e.g., Facebook, Twitter, LinkedIn, Google+, etc.) until the entire trial has been completed • 10. Willing to forgo rescue medicine for at least 2 hours after initiation of treatment with study drug (see In-Clinic Rescue Medicine) • Exclusion Criteria Subjects to whom any of the following criteria apply at screening will be excluded: • 1. History of hemiplegic migraine (at any time in the past). • 2. History of headaches of any type occurring on ≥15 days/month during any of the 3 months prior to screening. • 3.

[1] = 1 hr postdose, No rescue, N = 18
[2] = 2 h postdose, No rescue, N = 18
[3] = 4 h postdose, No rescue, N = 18
[4] = 24 h postdose (D2), No rescue, N = 18
[5] = 24 h postdose (D2), Total, N = 18
[6] = 48 h postdose (D3), Rescue, N = 18
[7] = 48 h postdose (D3), Total, N = 18

SMILES: CC(C)c1cccc(C(C)C)c1OCOP(=O)([O-])O.[Na+] [fospropofol disodium]
- Sustained MBS-free response: No, % (2-24 hours postdose, N = 18): (44.4) %
- Sustained MBS-free response: Yes, % (2-24 hours postdose, N = 18): (55.6) %
- Sustained headache pain freedom: No, % (2-24 hours postdose, N = 18): (77.8) %
- Sustained headache pain freedom: Yes, % (2-24 hours postdose, N = 18): (22.2) %
- Sustained headache pain relief: No, % (2-24 hours postdose, N = 18): (33.3) %
- Sustained headache pain relief: Yes, % (2-24 hours postdose, N = 18): (66.7) %
- Sustained MBS-free response: No, % (2-48 hours postdose, N = 18): (50) %
- Sustained MBS-free response: Yes, % (2-48 hours postdose, N = 18): (50) %
- Sustained headache pain freedom: No, % (2-48 hours postdose, N = 18): (83.3) %
- Sustained headache pain freedom: Yes, % (2-48 hours postdose, N = 18): (16.7) %
- Sustained headache pain relief: No, % (2-48 hours postdose, N = 18): (38.9) %
- Sustained headache pain relief: Yes, % (2-48 hours postdose, N = 18): (61.1) %
- Most Bothersome Symptom: MBS free, % [1]: (38.9) %
- Most Bothersome Symptom: MBS present, % [1]: (61.1) %
- Severity of headache pain: Mild pain, % [1]: (50.0) %
- Severity of headache pain: Moderate pain, % [1]: (33.3) %
- Severity of headache pain: Pain free, % [1]: (5.6) %
- Severity of headache pain: Severe pain, % [1]: (11.1) %
- Most Bothersome Symptom: MBS free, % (1 hr postdose, Total, N = 18): (38.9) %
- Most Bothersome Symptom: MBS present, % (1 hr postdose, Total, N = 18): (61.1) %
- Severity of headache pain: Mild pain, % (1 hr postdose, Total, N = 18): (50.0) %
- Severity of headache pain: Moderate pain, % (1 hr postdose, Total, N = 18): (33.3) %
- Severity of headache pain: Pain free, % (1 hr postdose, Total, N = 18): (5.6) %
- Severity of headache pain: Severe pain, % (1 hr postdose, Total, N = 18): (11.1) %
- Headache Pain level 1 hr (1 hr postdose, individual migraine subjects (N = 12)): Severe and Mild and None and Moderate
- Most Bothersome Symptom: MBS free, % [2]: (66.7) %
- Severity of headache pain: Mild pain, % [2]: (61.1) %
- Severity of headache pain: Moderate pain, % [2]: (16.7) %
- Severity of headache pain: Pain free, % [2]: (22.2) %
- Most Bothersome Symptom: MBS free, % (2 h postdose, Total, N = 18): (66.7) %
- Most Bothersome Symptom: MBS present, % (2 h postdose, Total, N = 18): (33.3) %
- Severity of headache pain: Mild pain, % (2 h postdose, Total, N = 18): (61.1) %
- Severity of headache pain: Moderate pain, % (2 h postdose, Total, N = 18): (16.7) %
- Severity of headache pain: Pain free, % (2 h postdose, Total, N = 18): (22.2) %
- Headache Pain level 2 hr (2 hr postdose, individual migraine subjects (N = 12)): Moderate and None and Mild
- Most Bothersome Symptom: MBS free, % [3]: (77.8) %
- Severity of headache pain: Mild pain, % [3]: (22.2) %
- Severity of headache pain: Moderate pain, % [3]: (5.6) %
- Severity of headache pain: Pain free, % [3]: (55.6) %
- Most Bothersome Symptom: MBS free, % (4 h postdose, Rescue, N = 18): (11.1) %
- Most Bothersome Symptom: MBS present, % (4 h postdose, Rescue, N = 18): (11.1) %
- Severity of headache pain: Mild pain, % (4 h postdose, Rescue, N = 18): (5.6) %
- Severity of headache pain: Pain free, % (4 h postdose, Rescue, N = 18): (11.1) %
- Most Bothersome Symptom: MBS free, % (4 h postdose, Total, N = 18): (88.9) %
- Most Bothersome Symptom: MBS present, % (4 h postdose, Total, N = 18): (11.1) %
- Severity of headache pain: Mild pain, % (4 h postdose, Total, N = 18): (27.8) %
- Severity of headache pain: Moderate pain, % (4 h postdose, Total, N = 18): (5.6) %
- Severity of headache pain: Pain free, % (4 h postdose, Total, N = 18): (66.7) %
- Headache Pain level 4 hr (4 hr postdose, individual migraine subjects (N = 12)): Moderate and None and Mild and Mild [b]
- Severity of headache pain: Mild pain, % [4]: (16.7) %
- Severity of headache pain: Moderate pain, % [4]: (11.1) %
- Severity of headache pain: Pain free, % [4]: (72.2) %
- Severity of headache pain: Moderate pain, % (24 h postdose (D2), Rescue, N = 18): (11.1) %
- Severity of headache pain: Mild pain, % [5]: (16.7) %
- Severity of headache pain: Moderate pain, % [5]: (22.2) %
- Severity of headache pain: Pain free, % [5]: (72.2) %
- Most Bothersome Symptom: MBS free, % (24 h postdose (Day 2), No rescue, N = 18): (72.2) %
- Most Bothersome Symptom: MBS free, % (24 h postdose (Day 2), Rescue, N = 18): (11.1) %
- Most Bothersome Symptom: MBS free, % (24 h postdose (Day 2), Total, N = 18): (83.3) %
- Severity of headache pain: Pain free, % (48 h postdose (D3), No rescue, N = 18): (83.3) %
- Severity of headache pain: Mild pain, % [6]: (11.1) %
- Severity of headache pain: Moderate pain, % [6]: (22.2) %
- Severity of headache pain: Mild pain, % [7]: (11.1) %
- Severity of headache pain: Moderate pain, % [7]: (22.2) %
- Severity of headache pain: Pain free, % [7]: (83.3) %
- Most Bothersome Symptom: MBS free, % (48 h postdose (Day 3), No rescue, N = 18): (66.7) %
- Most Bothersome Symptom: MBS free, % (48 h postdose (Day 3), Rescue, N = 18): (11.1) %
- Most Bothersome Symptom: MBS free, % (48 h postdose (Day 3), Total, N = 18): (77.8) %
- Most Bothersome Symptom: MBS free, % (Discharge, No rescue, N = 18): (72.2) %
- Severity of headache pain: Mild pain, % (Discharge, No rescue, N = 18): (11.1) %
- Severity of headache pain: Pain free, % (Discharge, No rescue, N = 18): (66.7) %
- Most Bothersome Symptom: MBS free, % (Discharge, Rescue, N = 18): (16.7) %
- Severity of headache pain: Mild pain, % (Discharge, Rescue, N = 18): (5-6) %
- Severity of headache pain: Pain free, % (Discharge, Rescue, N = 18): (11.1) %
- Most Bothersome Symptom: MBS free, % (Discharge, Total, N = 18): (88.9) %
- Severity of headache pain: Mild pain, % (Discharge, Total, N = 18): (16.7) %
- Severity of headache pain: Pain free, % (Discharge, Total, N = 18): (77.8) %
- Freedom from MBS at 2 hours: No, % (N = 18): (33.3) %
- Freedom from MBS at 2 hours: Yes, % (N = 18): (66.7) %
- Freedom from both migraine headache pain and MBS at 2 hours: No, % (N = 18): (77.8) %
- Freedom from both migraine headache pain and MBS at 2 hours: Yes, % (N = 18): (22.2) %
- Freedom from migraine headache pain at 2 hours: No, % (N = 18): (77.8) %
- Freedom from migraine headache pain at 2 hours: Yes, % (N = 18): (22.2) %
- MBS (Y/N) 1 hr (most bothersome symptom present, 1 hr postdose, individual migraine subjects (N = 12)): Yes and No
- MBS (Y/N) 2 hr (most bothersome symptom present, 2 hr postdose, individual migraine subjects (N = 12)): No and Yes
- MBS (Y/N) 4 hr (most bothersome symptom present, 4 hr postdose, individual migraine subjects (N = 12)): No and Yes and Yes [b]
